Series [1] is described as follows: Solubility of linoleic acid in a silicone oil or a mixed silicone oil.
In a further series the test system is pigmentation. Nature of the series: Animal experiments on inhibition of pigmentation (general statement, no method given). Format: in vivo. The conditions noted are these: compared with free fatty acids or alkyl esters thereof.

Turning to `CCCCC/C=C\C/C=C\CCCCCCCC(=O)O` [linoleic acid], the Solubility in dimethylpolysiloxane result in series [1] is “not soluble”.

In the case of `CCCCCCCCCCCCCCCC(=O)O` [palmitic acid], the “effects on inhibition of pigmentation” value with pigmentation is given as “no such significant effects”.

For `CCCCCCCCCCCCCCCCCC(=O)O` [stearic acid], the “effects on inhibition of pigmentation” value with pigmentation was “no such significant effects”.

Turning to `CC/C=C\C/C=C\C/C=C\CCCCCCCC(=O)O` [α-linolenic acid], the Solubility in dimethylpolysiloxane entry in series [1] was “not soluble”.

Values taken from patent EP0470275B1, “Skin whitening cosmetics” (priority 1990, dated 1992).
